Entries after “also recorded” stand apart in the source; their conditions may differ. Where no end group is shown, it is not given here.
What was measured:
Ascochyta rabiei spores = assay type: cell-based
F. oxysporum mycelia = assay type: cell-based, Fusarium oxysporum
[1] = test system: Colletotrichum gloeosporioides spores; assay type: cell-based; set-up: key: an N indicates that no activity was observed
Micrococcus luteus = assay type: cell-based
[2] = test system: Fusarium graminearum spores; assay type: cell-based
[3] = test system: Leptosphaeria maculans spores; assay type: cell-based
F. graminearum mycelia = assay type: cell-based, Fusarium graminearum
Aspergillus niger spores = assay type: cell-based; set-up: key: an N indicates that no activity was observed
[4] = test system: Fusarium oxysporum spores; assay type: cell-based
Escherichia coli = assay type: cell-based
C. parapsilosis = test: NCCLS M27-A2 microbroth dilution method; assay type: cell-based; conditions: synthetic peptide, tested at 0.125-64 μg/ml
Experimental: (§1) Synthetic Gm-moricinA was also tested against six yeast species using the NCCLS M27-A2 microbroth dilution method at the Women's and Children's Hospital (Adelaide, Australia). The yeasts tested were Candida albicans, C. parapsilosis, C. glabrata, C. krusei, C. tropicalis and Cryptococcus neoformans. The peptide was tested at 0.125-64 μg/ml, with each yeast species tested in duplicate. Trays were read at 24, 48 or 72 hours as appropriate.

Candida albicans = test: NCCLS M27-A2 microbroth dilution method; assay type: cell-based; conditions: synthetic peptide; C. albicans; tested at 0.125-64 μg/ml; read at 24, 48 or 72 hours
Experimental: as §1

C. krusei = test: NCCLS M27-A2 microbroth dilution method; assay type: cell-based; conditions: synthetic peptide, tested at 0.125-64 μg/ml
Experimental: as §1

Cryptococcus neoformans = test: NCCLS M27-A2 microbroth dilution method; assay type: cell-based; conditions: synthetic peptide; C. neoformans; tested at 0.125-64 μg/ml
Experimental: as §1

C. tropicalis = test: NCCLS M27-A2 microbroth dilution method; assay type: cell-based; conditions: synthetic peptide, tested at 0.125-64 μg/ml
Experimental: as §1

C. glabrata = test: NCCLS M27-A2 microbroth dilution method; assay type: cell-based; conditions: synthetic peptide, tested at 0.125-64 μg/ml
Experimental: as §1

Row | Substance | lowest concentration at which activity was observed in the zone inhibition assay, Ara (Ascochyta rabiei spores) [µM] | lowest concentration at which activity was observed in the zone inhibition assay, Fom (F. oxysporum mycelia) [µM] | lowest concentration at which activity was observed in the zone inhibition assay, Cgl [1] | lowest concentration at which activity was observed in the zone inhibition assay, Mlu (Micrococcus luteus) [µM] | lowest concentration at which activity was observed in the zone inhibition assay, Fgr [2] [µM] | lowest concentration at which activity was observed in the zone inhibition assay, Lma [3] [µM] | lowest concentration at which activity was observed in the zone inhibition assay, Fgm (F. graminearum mycelia) [µM] | lowest concentration at which activity was observed in the zone inhibition assay, Ani (Aspergillus niger spores) | lowest concentration at which activity was observed in the zone inhibition assay, Fox [4] [µM] | lowest concentration at which activity was observed in the zone inhibition assay, Eco (Escherichia coli) [µM] | activity against F. graminearum [2] | activity against A. rabiei (Ascochyta rabiei spores) | MIC90 (C. parapsilosis) [µg/mL] | MIC90 (Candida albicans) [µg/mL] | MIC90 (C. krusei) [µg/mL] | MIC90 (Cryptococcus neoformans) [µg/mL] | MIC90 (C. tropicalis) [µg/mL] | MIC90 (C. glabrata) [µg/mL] | activity against L. maculans [3]
1 | Bm-moricin: Synthetic B. mori moricin (residues 25 to 66 of SEQ ID NO:16) (AKIPIKAIKTVGKAVGKGLRAINIASTANDVFNFLKPKKRKH; listed as Bombyx mori) [reference compound] | 100 | 100 | N | 10 | 10 | 100 | 180 | N | 100 | 10 |  |  |  |  |  |  |  |  | 
2 | Gm-moricinB: Antifungal moricin-like peptide from Galleria mellonella, SEQ ID NO:5 (GGQIIGKALRGINIASTAHDIISQFKPKKKKNH; listed as Galleria mellonella) |  | 280 | N | 100 | 10 | 100 | 280 | N | 100 | 100 | showed activity |  |  |  |  |  |  |  | 
3 | Gm-moricinC1: Antifungal moricin-like peptide purified from Galleria mellonella hemolymph, SEQ ID NO:48 (KVPIGAIKKGGKIIKKGLGVIGAAGTAHEVYSHVKNRH; listed as Galleria mellonella) |  |  |  |  |  |  |  |  |  |  | had activity |  |  |  |  |  |  |  | 
4 | Gm-moricinC2: Moricin-like peptide from Galleria mellonella, SEQ ID NO:53, synthesised (KVPIGAIKKGGKIIKKGLGVLGAAGTAHEVYNHVRNRQ; listed as Galleria mellonella) |  | 10 |  | 100 | 1 | 10 | 10 | N |  | 10 |  |  |  |  |  |  |  |  | 
5 | KVNVNAIKKGGKAIGKGFKVISAASTAHDVYEHIKNRRH [Gm-moricinA] | 1 | 10 | N | 10 | 1 | 10 | 100 | N | 10 | 10 | had activity; also recorded: showed activity | showed activity | 4.0 | 64.0 | 8.0 | 4.0 | 4.0 | 64.0 | showed activity

Reference: patent US20080032924A1 (priority 2004, published 2008)
